Here are results for eight compounds from ChEMBL document CHEMBL1201862, “PubChem BioAssay data set” (2004).

Test systems include COLO 205; IGROV-1; HT-29; HOP-62; OVCAR-4; OVCAR-5; SK-MEL-28; CCRF-CEM; SNB-75; SF-268; NCI-H23; M14; SW-620; EKVX; HOP-92; DMS-114; MDA-MB-435; PC-3; T47D; Hs-578T.
Holding throughout (assay): NCI tumour cell line growth inhibition, 48 h

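Five compound concentrations were applied to cells in 96-well plates for 48 hours; endpoints were derived by simple linear interpolation of the resulting dose-response curve. Here, GI50 denotes the concentration required for 50% inhibition of growth.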 Active and inactive are the calls of the source. Cut-off read from the data, not from the text of the source: active = GI50 up to about 1.1 µM and inactive = higher.

With `COC(=O)C(C)(C)/N=C/N(C)C`, the GI50 in the assay on COLO 205, in the assay on IGROV-1, in the assay on HT-29, in the assay on HOP-62, with OVCAR-4 and with OVCAR-5 was > 100 µM (inactive) each time. For the same compound, the GI50 is > 100 µM (inactive) in the assay on SK-MEL-28; 72.6 µM (inactive) in the assay on CCRF-CEM; > 100 µM (inactive) with SNB-75; > 100 µM (inactive) in the assay with SF-268; > 100 µM (inactive) with NCI-H23; > 100 µM (inactive) in the assay on M14. Further, the GI50 with SW-620 was 28.4 µM (inactive); in the assay on EKVX it was > 100 µM (inactive); in the assay with HOP-92, > 100 µM (inactive); with DMS-114 it was > 100 µM (inactive).
For `COc1cccc(/C=C2\CCC(CN(C)C)C2=O)c1` (centres undefined), the GI50 was 2.61 µM (inactive) with MDA-MB-435; 4.35 µM (inactive) in the assay with COLO 205; 12.4 µM (inactive) in the assay with PC-3; 8.47 µM (inactive) with IGROV-1; 6.05 µM (inactive) in the assay with HT-29; 12.1 µM (inactive) in the assay with HOP-62. For the same compound, the GI50 was 9.82 µM (inactive) in the assay on OVCAR-4; 2.76 µM (inactive) in the assay with T47D; 12.1 µM (inactive) in the assay with OVCAR-5; 3.03 µM (inactive) in the assay on SK-MEL-28; 1.08 µM (active) in the assay on CCRF-CEM; 17 µM (inactive) in the assay with SNB-75. The GI50 was 8.71 µM (inactive) in the assay on Hs-578T; 6.07 µM (inactive) with SF-268; 8.09 µM (inactive) in the assay on NCI-H23; 3.6 µM (inactive) in the assay on M14; 2.21 µM (inactive) with SW-620; 19.3 µM (inactive) in the assay with EKVX. The values for the GI50 with HOP-92 and in the assay with DMS-114 were 13.7 µM (inactive) and 13.9 µM (inactive), respectively.
`COC(=O)C1=C(c2ccc3c(c2)OCO3)O[C@H](c2cc(OC)c(OC)c(OC)c2)[C@H]1COC(C)=O`: the GI50 in the assay with COLO 205 was 0.984 µM (active); in the assay on IGROV-1, 6.84 µM (inactive); in the assay with HT-29 it was 2.53 µM (inactive); with HOP-62 it was 3.08 µM (inactive); with OVCAR-4 it was 7.48 µM (inactive); with OVCAR-5, 41.8 µM (inactive). Also, the GI50 is 12.2 µM (inactive) with SK-MEL-28; 7.87 µM (inactive) in the assay on CCRF-CEM; 4.06 µM (inactive) in the assay on SNB-75; 7.5 µM (inactive) with SF-268; 2.25 µM (inactive) in the assay on NCI-H23; 1.71 µM (inactive) in the assay on M14. For the same compound, the GI50 is 3.87 µM (inactive) with SW-620, 38.3 µM (inactive) in the assay with EKVX, 2.67 µM (inactive) in the assay with HOP-92 and 1.15 µM (inactive) in the assay with DMS-114.
With `CC(=O)C1CC=C(C)CC1` (centres undefined), the GI50 with COLO 205, in the assay with IGROV-1, in the assay on HT-29, with HOP-62, in the assay with OVCAR-4 and in the assay with OVCAR-5 was > 100 µM (inactive) each time. For the same compound, the GI50 with SK-MEL-28, with CCRF-CEM, in the assay on SNB-75, in the assay on SF-268, with NCI-H23 and with M14 was > 100 µM (inactive) throughout. The GI50 with SW-620, in the assay on EKVX, in the assay with HOP-92 and with DMS-114 was > 100 µM (inactive) throughout.
As to `CCCCSN1C(=O)c2ccccc2C1=S`, the GI50 with COLO 205 was 62.4 µM (inactive); in the assay on IGROV-1, > 100 µM (inactive); in the assay with HT-29, 29.4 µM (inactive); with HOP-62, > 100 µM (inactive); in the assay on OVCAR-4 it was 76.6 µM (inactive); in the assay with OVCAR-5, > 100 µM (inactive). The GI50 was > 100 µM (inactive) in the assay with SK-MEL-28; 15.9 µM (inactive) in the assay on CCRF-CEM; 72.4 µM (inactive) in the assay with SNB-75; 48.9 µM (inactive) in the assay with SF-268; > 100 µM (inactive) with NCI-H23; 41.6 µM (inactive) with M14. Also, the GI50 in the assay with SW-620 is 32.9 µM (inactive); in the assay on EKVX, > 100 µM (inactive); in the assay with HOP-92, 41.1 µM (inactive); in the assay with DMS-114, 45.5 µM (inactive).
In the case of `CCOC(=O)C1=C(C)N(c2ccccc2)C2=C(C(=O)N(c3ccccc3)C2c2ccccc2)C1c1ccccc1` (centres undefined), the GI50 in the assay with COLO 205, in the assay on IGROV-1, in the assay with HT-29, in the assay on HOP-62, in the assay on OVCAR-4 and in the assay on OVCAR-5 was > 100 µM (inactive) each time. Besides, the GI50 in the assay on SK-MEL-28, with CCRF-CEM, in the assay on SNB-75, in the assay on SF-268, in the assay on NCI-H23 and in the assay with M14 was > 100 µM (inactive) in each case. Further, the GI50 in the assay with SW-620, in the assay with EKVX, with HOP-92 and in the assay with DMS-114 was > 100 µM (inactive) throughout.
With `COC1C(CO)OC(n2c3c(Cl)cccc3c3c4c(c5c6cccc(Cl)c6[nH]c5c32)C(=O)NC4=O)C(O)C1O` (centres undefined), the GI50 in the assay with MDA-MB-435 was 0.306 µM (active); in the assay with COLO 205, 0.351 µM (active); with PC-3, 0.227 µM (active); in the assay with IGROV-1 it was 0.299 µM (active); with HT-29, 0.244 µM (active); in the assay on HOP-62 it was 0.177 µM (active). Besides, the GI50 is 0.337 µM (active) with OVCAR-4; 0.154 µM (active) in the assay on T47D; 0.796 µM (active) with OVCAR-5; 0.337 µM (active) in the assay with SK-MEL-28; 0.0367 µM (active) in the assay with CCRF-CEM; 0.234 µM (active) with SNB-75. Besides, the GI50 in the assay on Hs-578T was 0.31 µM (active); with SF-268 it was 0.149 µM (active); in the assay with NCI-H23 it was 0.153 µM (active); in the assay with M14, 0.333 µM (active); in the assay with SW-620, 0.0849 µM (active); with EKVX, 0.463 µM (active). Also, the GI50 is 0.215 µM (active) in the assay with HOP-92 and 0.258 µM (active) in the assay with DMS-114.
As to `O=C(Nc1ccc(Cl)cc1)NS(=O)(=O)c1ccc2c(c1)CCC2` [SULOFENUR], the GI50 in the assay on MDA-MB-435 was 17.6 µM (inactive); with COLO 205 it was 29.8 µM (inactive); in the assay with PC-3, 19.1 µM (inactive); with IGROV-1, 12.3 µM (inactive); in the assay on HT-29, 61.1 µM (inactive); in the assay with HOP-62, 32.2 µM (inactive). In addition, the GI50 was 54.8 µM (inactive) with OVCAR-4; 16.4 µM (inactive) in the assay with T47D; > 43.8 µM (inactive) in the assay with OVCAR-5; 43.9 µM (inactive) with SK-MEL-28; 29.9 µM (inactive) in the assay on CCRF-CEM; > 55.6 µM (inactive) in the assay with SNB-75. Also, the GI50 is 0.209 µM (active) in the assay with Hs-578T; 49.2 µM (inactive) with SF-268; 28.1 µM (inactive) with NCI-H23; 37.9 µM (inactive) in the assay on M14; 35.3 µM (inactive) in the assay on SW-620; 36.5 µM (inactive) in the assay on EKVX. For the same compound, in the assay with DMS-114, the GI50 was 35.2 µM (inactive).
